# Data from ChEMBL document CHEMBL4342430, “An Agonist Radioligand for the Proinflammatory Lipid-Activated G Protein-Coupled Receptor GPR84 Providing Structural Insights” (J Med Chem, 2020).
# Active and inactive are the calls of the source. The rule behind the calls is not given here.
# Key:
# [1] = biological target: T1, G-protein coupled receptor 84 (Homo sapiens, UniProt Q9NQS5); assay: Displacement of [3H]PSB-1584 from recombinant human GPR84 expressed in CHO cell membranes co-expressing beta-arrestin2 measured after 6 hrs by scintillation counting method
# T1 sequence (Q9NQS5 whole entry): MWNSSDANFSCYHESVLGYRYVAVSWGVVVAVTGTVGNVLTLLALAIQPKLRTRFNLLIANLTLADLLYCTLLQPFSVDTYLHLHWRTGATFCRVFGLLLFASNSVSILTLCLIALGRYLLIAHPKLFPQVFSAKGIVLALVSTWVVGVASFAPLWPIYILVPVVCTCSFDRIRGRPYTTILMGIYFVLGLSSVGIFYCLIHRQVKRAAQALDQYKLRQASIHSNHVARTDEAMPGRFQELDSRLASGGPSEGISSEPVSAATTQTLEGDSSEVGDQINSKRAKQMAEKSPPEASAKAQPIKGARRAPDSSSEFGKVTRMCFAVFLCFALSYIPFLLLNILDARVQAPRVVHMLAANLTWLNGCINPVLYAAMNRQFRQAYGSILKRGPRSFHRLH
# [2] = biological target: T1, G-protein coupled receptor 84; assay: Positive allosteric modulation of recombinant human GPR84 expressed in CHO cell membranes co-expressing beta-arrestin2 assessed as increase in [3H]PSB-1584 binding measured after 6 hrs by scintillation counting method relative to control
# [3] = biological target: T1, G-protein coupled receptor 84; assay: Positive allosteric modulation of recombinant human GPR84 expressed in CHO cell membranes co-expressing beta-arrestin2 assessed as increase in [3H]PSB-1584 binding measured after 6 hrs by scintillation counting method
# [4] = biological target: T1, G-protein coupled receptor 84; assay: Displacement of [3H]PSB-1584 from recombinant human GPR84 expressed in CHO cell membranes co-expressing beta-arrestin2 at 100 uM measured after 6 hrs by scintillation counting method relative to control
# [5] = biological target: T1, G-protein coupled receptor 84; assay: Selectivity ratio of EC50 for agonist activity at recombinant human GPR84 expressed in CHO cell membranes co-expressing beta-arrestin2 assessed as inhibition of forskolin-stimulated [3H]cAMP accumulation to Ki for displacement of [3H]PSB-1584 from recombinant human GPR84 expressed in CHO cell membranes co-expressing beta-arrestin2; type: functional
# [6] = biological target: T1, G-protein coupled receptor 84; assay: Agonist activity at recombinant human GPR84 expressed in CHO cell membranes co-expressing beta-arrestin2 assessed as beta-arrestin 2 recruitment measured after 90 mins by beta-galactosidase based PathHunter assay
# [7] = biological target: T1, G-protein coupled receptor 84; assay: Agonist activity at recombinant human GPR84 expressed in CHO cell membranes co-expressing beta-arrestin2 assessed as inhibition of forskolin-stimulated [3H]cAMP accumulation preincubated for 5 mins followed by forskolin stimulation and measured after 15 mins by radioactive assay; type: functional, cell-based
smiles,measurement,setting,value
O=c1cc(NCCCCCCCO)[nH]c(=O)[nH]1,Ki,[1],267 nM
O=c1cc(N2CCN(C3CCc4ccccc43)CC2)[nH]c(=O)[nH]1 (stereo not given),Ki,[1],14.7 nM
O=c1cc(O)nc(SCCc2ccc(Br)cc2)[nH]1,Ki,[1],3.17 nM
COc1ccc2[nH]cc(Cc3c[nH]c4ccc(OC)cc34)c2c1,%max,[2],46%
same,EC50,[3],103 nM
Cc1ccc(CCSc2nc(O)cc(=O)[nH]2)cc1,Ki,[1],3.28 nM
Fc1cccc2[nH]cc(Cc3c[nH]c4cccc(F)c34)c12,%max,[2],56%
same,EC50,[3],1520 nM
CCCCCCSc1nc(O)cc(CCC)n1,Ki,[1],≥ 100000 nM
same,inhibition,[4],51%
COc1ccc2[nH]cc(Cc3c[nH]c4ccccc34)c2c1,%max,[2],53%
same,EC50,[3],495 nM
CCC(c1c[nH]c2ccccc12)c1c[nH]c2ccccc12,IC50,[1],46300 nM
CCCCCCN(C)c1cc(=O)[nH]c(=O)[nH]1,Ki,[1],6.94 nM
O=c1cc(NCCc2ccccc2F)[nH]c(=O)[nH]1,Ki,[1],35.6 nM
Clc1ccc2[nH]cc(Cc3c[nH]c4ccc(Cl)cc34)c2c1,Selectivity ratio,[5],20
same,%max,[2],90%
same,EC50,[3],250 nM
CCCCCNC(=O)c1cc(=O)[nH]c(=O)[nH]1,Ki,[1],1560 nM
O=Nc1c(NCCCc2ccccc2)[nH]c(=O)[nH]c1=O,Ki,[1],189 nM
CC(C)(C)c1ccc(CCNc2cc(=O)[nH]c(=O)[nH]2)cc1,Ki,[1],1.27 nM
CCCCCCCCCC(O)CC(=O)O (racemic),Ki,[1],110 nM
same,EC50,[6],3250 nM
c1ccc2c(Cc3c[nH]c4ccccc34)c[nH]c2c1,inhibition,[1],inactive
same,%max,[2],< 100%
same,Activity,[3],Dose-dependent effect
O=c1cc(NCCOc2ccccc2)[nH]c(=O)[nH]1,Ki,[1],3.12 nM
O=c1cc(NCCc2ccc(Cl)cc2Cl)[nH]c(=O)[nH]1,Ki,[1],2.3 nM
CCCCCCCNc1[nH]c(=O)[nH]c(=O)c1N=O,Ki,[1],58.6 nM
Fc1ccc2[nH]cc(Cc3c[nH]c4ccccc34)c2c1,%max,[2],55%
CCCCCCNc1[nH]c(=O)[nH]c(=O)c1Br,Ki,[1],225 nM
O=c1cc(N2CCC(Cc3ccccc3)CC2)[nH]c(=O)[nH]1,Ki,[1],18.7 nM
Fc1cc2[nH]cc(Cc3c[nH]c4cc(F)c(F)cc34)c2cc1F,%max,[2],55%
same,EC50,[3],52.4 nM
Fc1ccc2[nH]cc(Cc3c[nH]c4ccc(F)c(F)c34)c2c1F,%max,[2],67%
same,EC50,[3],83.6 nM
CCCCCCCCCCCC(O)CC(=O)O (racemic),Ki,[1],511 nM
same,EC50,[6],432 nM
same,EC50,[7],1570 nM
CCCCCCCNc1cc(=O)[nH]c(=O)[nH]1,Ki,[1],0.866 nM
O=c1cc(NCCc2cccs2)[nH]c(=O)[nH]1,Ki,[1],49.4 nM
O=c1cc(NCCc2cccc(Br)c2)[nH]c(=O)[nH]1,Ki,[1],3.99 nM
CCCCCCSc1nccc(O)n1,Ki,[1],3470 nM
CCCCCCOC(=O)c1cc(=O)[nH]c(=O)[nH]1,Ki,[1],1210 nM
CCCCCCSc1nc(C)cc(O)n1,Ki,[1],3630 nM
CCCCCCCCCCCC(=O)O [DODECANOATE],Ki,[1],2170 nM
same,EC50,[6],3490 nM
O=C(O)CCCCCCCCCCCO,Ki,[1],> 10000 nM
same,EC50,[6],> 100000 nM
same,inhibition,[4],5%
same,EC50,[7],> 100000 nM
CCCCCCCCCNC(=O)c1cc(=O)[nH]c(=O)[nH]1,Ki,[1],> 10000 nM
same,inhibition,[4],26%
Fc1ccc2c(Cc3c[nH]c4cc(F)ccc34)c[nH]c2c1,%max,[2],57%
same,EC50,[3],302 nM
CCCCCCCCN(C)c1cc(=O)[nH]c(=O)[nH]1,Ki,[1],3.6 nM
CCCCCCCCNc1[nH]c(=O)[nH]c(=O)c1Br,Ki,[1],34.7 nM
Oc1cc(O)nc(SCCCc2ccccc2)n1,Ki,[1],0.7 nM
O=c1cc(N2CCN(Cc3cccc4ccccc34)CC2)[nH]c(=O)[nH]1,Ki,[1],62.7 nM
CCCCCCSc1nc(O)cc(C(=O)O)n1,Ki,[1],145 nM
Fc1cc2c(Cc3c[nH]c4cc(Cl)c(F)cc34)c[nH]c2cc1Cl,Selectivity ratio,[5],84
same,%max,[2],36%
same,EC50,[3],129 nM
O=c1cc(NCCc2ccccc2Cl)[nH]c(=O)[nH]1,Ki,[1],36 nM
Clc1ccc2c(Cc3c[nH]c4cc(Cl)ccc34)c[nH]c2c1,IC50,[1],43700 nM
CCc1ccc(CCNc2cc(=O)[nH]c(=O)[nH]2)cc1,Ki,[1],0.582 nM
Cc1ccc(CCNc2cc(=O)[nH]c(=O)[nH]2)cc1,Ki,[1],1.25 nM
O=c1cc(NCCc2ccc(F)cc2)[nH]c(=O)[nH]1,Ki,[1],11.4 nM
Oc1cc(NCCc2ccccc2)nc(O)n1,Ki,[1],10.8 nM
O=c1cc(NCCCOc2ccccc2)[nH]c(=O)[nH]1,Ki,[1],2.1 nM
Oc1cc(NCCCCc2ccccc2)nc(O)n1,Ki,[1],0.58 nM
CCCCCCCCNC(=O)c1cc(=O)[nH]c(=O)[nH]1,Ki,[1],> 10000 nM
same,inhibition,[4],12%
Clc1cccc2[nH]cc(Cc3c[nH]c4cccc(Cl)c34)c12,%max,[2],94%
same,EC50,[3],175 nM
CCCCCCC(O)C(=O)O (racemic),Ki,[1],100000 nM
same,EC50,[6],> 100000 nM
same,inhibition,[4],50%
same,EC50,[7],> 100000 nM
Cn1cc(Cc2cn(C)c3ccccc23)c2ccccc21,IC50,[1],14000 nM
CCCCCCCC(O)CC(=O)O (racemic),Ki,[1],3310 nM
same,EC50,[6],4050 nM
same,EC50,[7],31800 nM
CCCCCCCCCCCCC(=O)O [TRIDECANOATE],Ki,[1],1930 nM
same,EC50,[6],1700 nM
same,EC50,[7],9610 nM
CCC/C=C/CNc1cc(=O)[nH]c(=O)[nH]1,Ki,[1],37.4 nM
CCCC(c1c[nH]c2ccccc12)c1c[nH]c2ccccc12,IC50,[1],22400 nM
CCCCCCCCCCC[C@@H](O)CC(=O)O,Ki,[1],472 nM
same,EC50,[6],452 nM
same,EC50,[7],1750 nM
O=c1cc(O)nc(SCCc2ccc(F)cc2)[nH]1,Ki,[1],3.77 nM
O=c1cc(O)nc(SCCc2ccc(C(F)(F)F)cc2)[nH]1,Ki,[1],36.7 nM
CCCCCCCCCCCCC(O)C(=O)O (racemic),Ki,[1],318 nM
same,EC50,[6],4360 nM
same,EC50,[7],3860 nM
CCCCCCCCCNc1cc(=O)[nH]c(=O)[nH]1,Ki,[1],1.12 nM
CCCCCCCC(=O)O [OCTANOIC ACID],Ki,[1],19600 nM
same,EC50,[6],> 100000 nM
same,EC50,[7],> 100000 nM
O=c1cc(NCCc2cccc(F)c2)[nH]c(=O)[nH]1,Ki,[1],9.48 nM
CCCCCCNC(=O)c1cc(=O)[nH]c(=O)[nH]1,Ki,[1],469 nM
Fc1cc(F)c2[nH]cc(Cc3c[nH]c4c(F)cc(F)cc34)c2c1,%max,[2],87%
O=c1cc(NCCc2c[nH]c3ccccc23)[nH]c(=O)[nH]1,Ki,[1],497 nM
CCCCCCCCCCNc1cc(O)nc(O)n1,Ki,[1],0.726 nM
O=c1cc(NCCc2cccc(Cl)c2)[nH]c(=O)[nH]1,Ki,[1],4.75 nM
O=C(c1c[nH]c2ccccc12)c1c[nH]c2ccccc12,%max,[2],59%
same,EC50,[3],1930 nM
Fc1ccc2[nH]cc(Cc3c[nH]c4ccc(F)cc34)c2c1,%max,[2],125%
same,EC50,[3],199 nM
O=C(NCCCc1ccccc1)c1cc(=O)[nH]c(=O)[nH]1,Ki,[1],1590 nM
CCCCCCCCNc1[nH]c(=O)[nH]c(=O)c1N=O,Ki,[1],37 nM
Brc1ccc2[nH]cc(Cc3c[nH]c4ccc(Br)cc34)c2c1,Selectivity ratio,[5],58
same,%max,[2],69%
same,EC50,[3],59.1 nM
Fc1cccc2c(Cc3c[nH]c4c(F)cccc34)c[nH]c12,%max,[2],153%
same,EC50,[3],61.8 nM
CCCCOC(=O)c1cc(O)nc(O)n1,Ki,[1],> 10000 nM
same,inhibition,[4],-3%
CCCCCCSc1nc(O)cc(C(=O)OC)n1,Ki,[1],> 10000 nM
same,inhibition,[4],9%
O=c1cc(N2CCN(c3ccc(Cl)cc3)CC2)[nH]c(=O)[nH]1,Ki,[1],44.4 nM
CCCCCNc1cc(=O)[nH]c(=O)[nH]1,Ki,[1],91 nM
O=c1cc(O)nc(SCCc2ccc(Cl)cc2)[nH]1,Ki,[1],2.63 nM
Oc1cc(O)nc(SCCCCc2ccccc2)n1,Ki,[1],0.324 nM
